Data published in ChEMBL document CHEMBL3232722, “Synthesis and kinase inhibitory activity of new sulfonamide derivatives of pyrazolo[4,3-e][1,2,4]triazines” (Eur J Med Chem, 2014).
Activity calls are given as the source filed them. No cut-off for these calls is given here.

Columns and labels:
[1] = molecular target: Casein kinase II subunit alpha (Homo sapiens, UniProt P68400); assay: Inhibition of CK2alpha1 (unknown origin) using casein as substrate in presence of [gamma33P]ATP
MDA-MB-231 [2] = assay: Cytostatic activity against human MDA-MB-231 cells assessed as decrease in [3H]thymidine incorporation into DNA after 24 hrs by liquid scintillation counting analysis; assay type: functional, cell-based
MCF7 [3] = assay: Ratio of IC50 for human MCF7 cells to IC50 for human K562 cells; assay type: functional
MDA-MB-231 [4] = assay: In vitro antiproliferative activity against human MDA-MB-231 cells assessed as decrease in cell vaibility after 24 hrs by MTT assay; assay type: functional, cell-based; conditions: for IC50: MDA-MB-231, 24 h
K562 [5] = assay: Effect on cell cycle distribution in human K562 cells after 24 hrs by propidium iodide staining based flow cytometry; assay type: functional
[6] = molecular target: T1, Tyrosine-protein kinase ABL1 (Homo sapiens, UniProt P00519); assay: Inhibition of recombinant Abl kinase (unknown origin) expressed in Sf9 cells using GGEAIYAAPFKK as substrate in presence of [gamma33P]ATP
T1 sequence (P00519 whole entry): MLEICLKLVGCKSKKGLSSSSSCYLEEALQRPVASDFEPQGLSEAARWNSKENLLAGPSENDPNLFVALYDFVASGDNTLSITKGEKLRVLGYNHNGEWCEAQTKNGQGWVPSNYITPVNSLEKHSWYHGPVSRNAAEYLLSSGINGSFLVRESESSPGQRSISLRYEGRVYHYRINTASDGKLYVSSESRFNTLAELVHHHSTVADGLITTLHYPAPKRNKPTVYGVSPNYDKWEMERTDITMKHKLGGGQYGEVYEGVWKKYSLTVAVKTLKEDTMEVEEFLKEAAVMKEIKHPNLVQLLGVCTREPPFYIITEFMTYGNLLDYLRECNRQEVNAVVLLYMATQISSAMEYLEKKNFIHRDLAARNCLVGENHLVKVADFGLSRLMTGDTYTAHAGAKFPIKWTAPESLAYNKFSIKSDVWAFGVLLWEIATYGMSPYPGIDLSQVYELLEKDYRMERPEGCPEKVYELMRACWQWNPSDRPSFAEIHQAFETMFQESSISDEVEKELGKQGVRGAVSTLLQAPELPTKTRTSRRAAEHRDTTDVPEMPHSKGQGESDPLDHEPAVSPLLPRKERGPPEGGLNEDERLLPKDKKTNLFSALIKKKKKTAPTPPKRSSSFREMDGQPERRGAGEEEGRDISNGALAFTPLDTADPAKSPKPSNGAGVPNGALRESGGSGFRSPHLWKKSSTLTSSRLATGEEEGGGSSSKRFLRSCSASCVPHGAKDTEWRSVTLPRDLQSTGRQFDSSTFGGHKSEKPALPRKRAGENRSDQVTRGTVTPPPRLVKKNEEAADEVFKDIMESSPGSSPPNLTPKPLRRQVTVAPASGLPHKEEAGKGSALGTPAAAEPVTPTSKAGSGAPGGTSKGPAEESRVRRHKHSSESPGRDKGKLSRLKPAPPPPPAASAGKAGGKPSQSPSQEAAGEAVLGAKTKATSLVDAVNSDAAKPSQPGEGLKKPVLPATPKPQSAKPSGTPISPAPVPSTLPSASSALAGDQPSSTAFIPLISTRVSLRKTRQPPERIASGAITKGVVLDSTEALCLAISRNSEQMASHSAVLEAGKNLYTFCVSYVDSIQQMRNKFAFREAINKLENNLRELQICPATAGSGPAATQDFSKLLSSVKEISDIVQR

K562 [7] = assay: In vitro antiproliferative activity against human K562 cells assessed as decrease in cell viability after 24 hrs by MTT assay; assay type: functional, cell-based; conditions: for IC50: K562, 24 h
HL-60 = assay: In vitro antiproliferative activity against human HL60 cells assessed as decrease in cell viability after 24 hrs by MTT assay; assay type: functional, cell-based; conditions: for IC50: HL-60, 24 h
[8] = molecular target: T2, Bcr/Abl fusion protein (Homo sapiens) (UniProt P00519+P11274); assay: Inhibition of Bcr/Abl kinase in human K562 cells assessed as decrease in STAT5 phosphorylation at Tyr694 after 1 hr by immunoblot analysis; assay type: cell-based
T2 sequence (P00519 whole entry, looked up, the tested form may be a part): as the sequence (P00519 whole entry) above
T2 sequence (P11274 whole entry, looked up, the tested form may be a part): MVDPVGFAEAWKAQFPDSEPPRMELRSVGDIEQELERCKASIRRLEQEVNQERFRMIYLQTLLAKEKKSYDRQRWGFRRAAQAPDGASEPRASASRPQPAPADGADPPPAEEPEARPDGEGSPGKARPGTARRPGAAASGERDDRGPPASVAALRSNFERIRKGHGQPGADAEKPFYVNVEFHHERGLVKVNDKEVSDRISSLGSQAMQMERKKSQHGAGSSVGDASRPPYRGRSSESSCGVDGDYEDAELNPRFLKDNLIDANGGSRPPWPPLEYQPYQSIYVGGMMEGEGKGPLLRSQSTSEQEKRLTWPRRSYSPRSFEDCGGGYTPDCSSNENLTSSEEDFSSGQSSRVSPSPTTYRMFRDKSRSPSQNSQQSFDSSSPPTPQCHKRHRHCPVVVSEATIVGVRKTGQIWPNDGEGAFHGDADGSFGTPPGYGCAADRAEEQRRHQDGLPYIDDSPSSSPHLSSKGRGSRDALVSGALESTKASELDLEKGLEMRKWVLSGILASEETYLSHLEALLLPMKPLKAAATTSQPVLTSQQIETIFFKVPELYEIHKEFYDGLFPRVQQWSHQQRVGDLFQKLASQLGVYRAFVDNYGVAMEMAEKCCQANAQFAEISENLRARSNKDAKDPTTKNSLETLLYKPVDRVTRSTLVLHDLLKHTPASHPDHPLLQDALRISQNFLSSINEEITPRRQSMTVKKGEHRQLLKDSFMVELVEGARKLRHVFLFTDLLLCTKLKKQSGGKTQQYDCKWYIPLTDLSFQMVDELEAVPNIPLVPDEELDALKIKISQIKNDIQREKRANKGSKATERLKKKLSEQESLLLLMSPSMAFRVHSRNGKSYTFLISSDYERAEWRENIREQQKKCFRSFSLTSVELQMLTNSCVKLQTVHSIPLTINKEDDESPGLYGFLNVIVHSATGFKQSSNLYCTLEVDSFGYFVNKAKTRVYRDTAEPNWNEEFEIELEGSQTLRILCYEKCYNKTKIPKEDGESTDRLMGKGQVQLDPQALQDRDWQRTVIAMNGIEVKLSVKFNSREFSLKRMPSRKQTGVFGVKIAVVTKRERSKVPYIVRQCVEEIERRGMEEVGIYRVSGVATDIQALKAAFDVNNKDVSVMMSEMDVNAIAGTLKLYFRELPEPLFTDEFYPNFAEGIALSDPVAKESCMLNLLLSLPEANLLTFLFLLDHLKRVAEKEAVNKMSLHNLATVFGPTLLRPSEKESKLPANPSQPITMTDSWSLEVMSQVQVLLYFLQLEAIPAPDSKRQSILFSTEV

[9] = molecular target: T2, Bcr/Abl fusion protein (Homo sapiens); assay: Inhibition of Bcr/Abl kinase tyrosine phosphorylation in human K562 cells after 1 hr by immunoblot analysis; assay type: cell-based
K562 [10] = assay: Induction of apoptosis in human K562 cells assessed as increase in sub-diploid cell population at 10 to 100 uM after 24 hrs by propidium iodide staining based flow cytometry; assay type: functional
MCF7 [11] = assay: Cytostatic activity against human MCF7 cells assessed as decrease in [3H]thymidine incorporation into DNA after 24 hrs by liquid scintillation counting analysis; assay type: functional, cell-based
CCRF-CEM = assay: In vitro antiproliferative activity against human CCRF-CEM cells assessed as decrease in cell viability after 24 hrs by MTT assay; assay type: functional, cell-based
[12] = molecular target: T2, Bcr/Abl fusion protein (Homo sapiens); assay: Inhibition of Bcr/Abl kinase in human K562 cells assessed as decrease in CrkL phosphorylation at Tyr207 at 1 to 100 uM after 1 hr by immunoblot analysis; assay type: cell-based
BV-173 = assay: (§1) In vitro antiproliferative activity against human BV173 cells assessed as decrease in cell viability after 24 hrs by MTT assay; assay type: functional, cell-based
[13] = as §1; assay type: functional, cell-based; conditions: BV-173, 24 h
[14] = molecular target: Cyclin-dependent kinase 2/cyclin E1 (Homo sapiens, UniProt P24941); assay: Inhibition of CDK2/cyclin E (unknown origin) expressed in Sf9 cells using histone H1 as substrate in presence of [gamma33P]ATP
MCF7 [15] = assay: In vitro antiproliferative activity against human MCF7 cells assessed as decrease cell viability after 24 hrs by MTT assay; assay type: functional, cell-based; conditions: for IC50: MCF7, 24 h
K562 [16] = assay: Inhibition of tyrosine phosphorylation of protein with molecular weight between 40 and 60 kDa in human K562 cells after 1 hr by immunoblot analysis; assay type: functional, cell-based
[17] = molecular target: T1, Tyrosine-protein kinase ABL1; assay: Inhibition of Abl kinase tyrosine phosphorylation in human K562 cells after 1 hr by immunoblot analysis; assay type: cell-based
K562 [18] = assay: Antiproliferative activity against human K562 cells assessed as increase in number of cells with compromised cell membranes at 10 to 100 uM after 24 hrs by propidium iodide exclusion assay based flow cytometry; assay type: functional
K562 [19] = conditions: Homo sapiens, 10 uM
Description: Inhibition of tyrosine phosphorylation of protein with molecular weight between 40 and 60 kDa in human K562 cells at 10 uM after 1 hr by immunoblot analysis

MDA-MB-231 [20] = assay: Ratio of IC50 for human MDA-MB-231 cells to IC50 for human K562 cells; assay type: functional

Chain of Casein kinase II subunit alpha (P68400 whole entry): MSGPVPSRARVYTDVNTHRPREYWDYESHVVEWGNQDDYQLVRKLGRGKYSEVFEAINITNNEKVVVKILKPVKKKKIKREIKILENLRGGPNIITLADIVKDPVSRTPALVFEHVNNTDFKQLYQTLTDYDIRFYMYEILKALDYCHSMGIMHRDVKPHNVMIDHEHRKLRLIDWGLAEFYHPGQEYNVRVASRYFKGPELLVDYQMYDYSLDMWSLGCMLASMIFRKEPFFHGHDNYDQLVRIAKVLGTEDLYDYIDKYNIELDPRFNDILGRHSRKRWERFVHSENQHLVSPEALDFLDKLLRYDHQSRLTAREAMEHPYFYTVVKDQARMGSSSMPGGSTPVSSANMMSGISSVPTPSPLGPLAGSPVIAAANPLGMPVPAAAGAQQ

Structure (SMILES) | IC50 [1] | IC50 (MDA-MB-231 [2]) | inhibition (MDA-MB-231 [2]) | inhibition (MDA-MB-231 [4]) | IC50 (MDA-MB-231 [4]) | Activity (K562 [5]) | IC50 [6] | inhibition (K562 [7]) | IC50 (K562 [7]) | inhibition (HL-60) | IC50 (HL-60; read-out: IC50) | inhibition [8] | inhibition [9] | Activity (K562 [10]) | IC50 (MCF7 [11]) | inhibition (MCF7 [11]) | IC50 (CCRF-CEM) | inhibition (CCRF-CEM) | inhibition (BV-173) | IC50 [13] | also measured
Cc1nn(C)c2nnc(Nc3ccc(S(=O)(=O)N4CCNCC4)cc3)nc12 | > 25 µM | 103 µM | Dose-dependent effect | Dose-dependent effect | 130 µM | inactive | 5.8 µM | Dose-dependent effect | 27 µM | Dose-dependent effect | 55 µM | Dose-dependent effect | Dose-dependent effect | Active | 170 µM | Dose-dependent effect | 20 µM | Dose-dependent effect | Dose-dependent effect | 22 µM | Ratio IC50 (MCF7 [3]): 5; inhibition [12]: Active; IC50 [14]: > 25 µM; inhibition (MCF7 [15]): Dose-dependent effect; IC50 (MCF7 [15]): 150 µM; inhibition (K562 [16]): Dose-dependent effect; inhibition [17]: Dose-dependent effect; Activity (K562 [18]): Active
Cc1ccc(NC(=O)c2ccc(CN3CCN(C)CC3)cc2)cc1Nc1nccc(-c2cccnc2)n1 [IMATINIB] |  |  |  |  |  |  |  |  | 13 µM |  |  |  |  |  |  |  | 45 µM |  |  | 20 µM | IC50 (HL-60): 55 µM; inhibition (K562 [19]): Active
Cc1nn(C)c2nnc(Nc3ccc(S(=O)(=O)N4CCCNCC4)cc3)nc12 | > 50 µM | 150 µM | Dose-dependent effect | Dose-dependent effect | 155 µM | inactive | 5.9 µM | Dose-dependent effect | 21 µM | Dose-dependent effect | 38 µM | Dose-dependent effect | Dose-dependent effect | Active | 123 µM | Dose-dependent effect | 36 µM | Dose-dependent effect | Dose-dependent effect | 22 µM | IC50 [14]: > 50 µM; Ratio IC50 (MDA-MB-231 [20]): 7; inhibition (MCF7 [15]): Dose-dependent effect; IC50 (MCF7 [15]): 140 µM; inhibition (K562 [16]): Dose-dependent effect; inhibition [17]: Dose-dependent effect; Activity (K562 [18]): Active
